3 compounds from patent US11028052B2, “Compounds useful as modulators of TRPM8” (Firmenich Incorporated, priority 2013, dated 2021) can be followed below.

Converted amounts (≈) assume the structure as drawn.

For one series, the target named is T1, hTRPM8 (Homo sapiens, UniProt Q7Z2W7).
T1 construct: expressed in transfected cells
The series can be described thus: hTRPM8 cell based agonist assay (section 1.1). The following applies: mammalian cell line stably expressing TRPM8. An excerpt: The present compounds are useful as modulators of TRPM8. The activity of TRPM8 can be readily monitored in cell based assays using fluorescent calcium-sensitive dyes, membrane potential dyes, or sodium-sensitive dyes. The activity of TRPM8 can also be monitored with electrophysiological set-ups, such as patch-clamping and two-electrode voltage clamping. A mammalian cell line derivative which stably expresses TRPM8 was used in biological assays in association with testing the present compounds with cool-tasting or -feeling properties (Servant et al. US 2007/0259354 A1 and references cited therein). Typical compound concentrations tested were 100 μM, 50 μM, 10 μM, 1 μM, and 0.5 μM. The present compounds have shown strong activity as agonists of hTRPM8. Assay results for compounds are illustrated in Table 1 below. Specifically, the Compounds listed in Table 1.1, e.g., Compounds 1.A1 to Compounds 1.A9 are the specific compounds as described herein. For example, Compounds 1.A1 is Example 1.1.

A further series in a line: Solubility in LSB. Format: physicochemical. The conditions noted are these: Low Sodium Buffer (LSB), aqueous buffer.
Series [1] concerns panelists. The series can be described thus: Sensory study, cooling line scale vs WS-3 (section 1.2). Type of series: in vivo, human. The conditions noted are these: for Average Cooling: 15 point line scale. The protocol: Three typical sensory studies are described below each followed by a table summarizing sensory results of selected compounds of the invention (Tables 1.2 to 1.4).
(§1) All samples made with Low Sodium Buffer (LSB) pH ˜7.1 and contain 0.1% ethanol.
(§2) Compounds are rated on a 15 point line scale where 45 μM WS-3 (N-Ethyl-p-menthane-3-carboxamide) is ranked as a 5 in cool intensity. In most cases our compounds are tested to determine at what concentration the cooling intensity is equivalent to 45 μM WS-3. In each test, the panelist is presented with a 0 μM control sample, a 45 μM WS-3 control sample and the experimental compound sample and asked to rate the cooling intensity of each sample. Panelists are also asked to rate bitterness. In the table below there was no significant bitterness detected unless otherwise noted. Also, in the table below, n represents the number of tests completed for a given experiment (#panelists×#repetitions).

Series [2] deals with panelists. The series can be described thus: Sensory studies, cool line scale vs WS-3 (section 2.2). Type of series: in vivo, human. From the text: The results are presented relative to a known concentration of WS-3. A more specific detailed example of the sensory evaluation of selected examples are also presented below. […]
Series [3] has as its system panelists. In words: Sensory study, cool line scale test vs WS-3 (section 3.2). Format: in vivo, human. The conditions noted are these: Table 3.2; 45 μM WS-3 control; n = 30. Here is the method: Two typical sensory studies are described below each followed by a table summarizing sensory results of selected compounds of the invention (Tables 3.2 and 3.3).
as §1
as §2, with “The test is a cool line scale test with timed 30 seconds interval. Compounds” for “Compounds”, “intensity. The present compound was” for “intensity. In most cases our compounds are”, “panelist was” for “panelist is”, “Panelists were” for “Panelists are”

T1 sequence (Q7Z2W7 whole entry): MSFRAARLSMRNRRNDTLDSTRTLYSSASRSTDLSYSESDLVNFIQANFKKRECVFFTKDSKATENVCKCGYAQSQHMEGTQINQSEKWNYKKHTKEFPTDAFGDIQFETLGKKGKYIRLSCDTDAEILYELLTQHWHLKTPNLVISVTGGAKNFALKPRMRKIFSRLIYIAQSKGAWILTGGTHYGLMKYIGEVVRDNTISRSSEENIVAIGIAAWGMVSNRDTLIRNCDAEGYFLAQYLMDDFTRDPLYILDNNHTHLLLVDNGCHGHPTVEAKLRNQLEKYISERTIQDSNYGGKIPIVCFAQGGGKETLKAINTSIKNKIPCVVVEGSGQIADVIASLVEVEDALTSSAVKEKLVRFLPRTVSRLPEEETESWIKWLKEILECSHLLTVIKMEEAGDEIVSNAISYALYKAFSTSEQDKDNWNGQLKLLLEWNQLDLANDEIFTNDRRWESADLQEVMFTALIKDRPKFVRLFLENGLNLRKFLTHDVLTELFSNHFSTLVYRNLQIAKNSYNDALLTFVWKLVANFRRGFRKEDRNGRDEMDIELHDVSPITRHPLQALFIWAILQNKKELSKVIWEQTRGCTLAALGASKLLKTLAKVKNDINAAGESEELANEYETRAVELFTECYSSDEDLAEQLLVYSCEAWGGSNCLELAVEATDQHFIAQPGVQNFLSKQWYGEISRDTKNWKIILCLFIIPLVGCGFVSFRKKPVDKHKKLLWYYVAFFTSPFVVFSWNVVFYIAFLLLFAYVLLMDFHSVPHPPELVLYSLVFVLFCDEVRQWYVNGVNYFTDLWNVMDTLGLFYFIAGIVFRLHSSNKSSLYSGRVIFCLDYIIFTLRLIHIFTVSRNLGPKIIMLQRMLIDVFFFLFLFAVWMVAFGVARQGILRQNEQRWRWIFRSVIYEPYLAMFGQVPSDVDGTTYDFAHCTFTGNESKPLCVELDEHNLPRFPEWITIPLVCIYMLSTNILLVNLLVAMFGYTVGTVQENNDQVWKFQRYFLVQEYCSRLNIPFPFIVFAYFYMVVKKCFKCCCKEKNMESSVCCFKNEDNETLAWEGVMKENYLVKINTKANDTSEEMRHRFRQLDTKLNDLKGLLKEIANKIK

Take `CN1C(=O)N(CC(=O)c2cccnc2)C(=O)C(C)(C2=CCCCC2)C1=O` (stereo not drawn): the melting point (usually the temperature of the solid-liquid transition) was in the range of 109 to 111 °C.

Take `CC1=NN(CC(=O)c2ccccc2)C(=O)C1(C)C1CCCCC1` (stereo not drawn) [Example 1.1, 4-cyclohexyl-3,4-dimethyl-1-(2-oxo-2-phenylethyl)-1H-pyrazol-5(4H)-one]: at hTRPM8, the half-maximal effective concentration (EC50) (as a rule, the midpoint of the concentration-response curve) was determined as 34 nM and the “hTRPM8 EC50 Ratio” value was 100.0. The solubility (in general, how much of the substance goes into solution per volume) in the series “Solubility in LSB” was determined as 337 µM (≈ 105 µg/mL). Further, in the series with panelists [1] (Table 1.2, 5 μM, n = 30), the “Average Cooling” value was 4.7. Further, the “Sensory Results” value in the series with panelists [1] (compound concentration compared in cooling intensity with 45 uM WS-3, LSB pH ~7.1, 0.1% ethanol) was found to be 5 uM~45 uM WS-3.

As for `CCNC(=O)C1CC(C)CCC1C(C)C` (stereo not drawn) [WS-3, N-Ethyl-p-menthane-3-carboxamide, reference compound], the “Average Cooling” value in the series with panelists [1] (Table 1.2, 45 μM WS-3 control, n = 30) came out at 4.4; in the series on panelists [1] (Table 1.3, 45 μM WS-3 control, n = 28) it was 5.4; in the series with panelists [1] (Table 1.4, 45 μM WS-3 control, n = 28), 4.1; with panelists [3] it was 4.5. The “Cool intensity compared with LSB (line scale conclusion)” value in the series on panelists [2] (60 μM in LSB at pH 7.1) is given as “significantly higher in cool intensity than LSB”. For the same compound, the “Ave Cool” value in the series with panelists [2] (Table 2.1, 60 μM WS-3, n = 10) is on record as 3.7.
